According to US20060013775A1, “Use of ppar activators for the treatment of pulmonary fibrosis” (priority 2001, published 2006):

Test system: Primary human lung fibroblasts
Test: α-SMA positive cell (myofibroblast) count in primary lung fibroblast strains from ILD patients
Format: cell-based
Settings: for percentage of α-SMA cells (α-SMA positive cells as a percentage of total cells): pioglitazone 3 μM, 3 days; for percentage of α-SMA cells: 10 days, vehicle 16.5 (SEM 2.7), n=4
From the text: Primary human lung fibroblasts were derived from patients with ILD (Idiopathic Pulmonary Fibrosis or Chronic Hypersensitivity Pneumonitis). Patients had clinical, functional and radiologic features which fulfil the diagnostic criteria for an ILD. Briefly, they had progressive dyspnea, bilateral reticulonodular images on chest roentgenogram, restrictive lung functional impairment, with decreased lung volumes and compliance, and hypoxemia at rest that worsened with exercise. The methods used to isolate and culture the lung fibroblasts and count cells are described in Wang et al, Am. J. Physiol. Lung 277:L1158-1164 (1999). In brief, lung fibroblasts were isolated by trypsin digestion of tissues minced to 1 mm^2 fragments. Fibroblast/myofibroblast strains were established in Dulbecco's modified Eagle's medium (or in Hams F-12 medium) supplemented with 10% fetal calf serum, 200 U/ml penicillin, and […] streptomycin, and were cultured in 24-well plates. All cells were cultured at 37° C. in 95% air-5% carbon dioxide. For these experiments, 2 strains were used. In order to quantify myofibroblast numbers, the myofibroblast marker alpha-smooth muscle actin (α-SMA) was measured. […] In a first experiment, the 2 strains were grown to 70-80% confluence. The cells were exposed to pioglitazone at 3 μM or drug vehicle for 3 days, after which the number of α-SMA positive cells was quantified (sample size 24) as a percentage of total cells. For one strain, the percentage of α-SMA cells was 27 (standard error mean 3.7) with control and 17 (standard error mean 2.5) in the presence of 3 μM pioglitazone. The drug effect was statistically significant (P≦0.01 Student-Newman-Keuls Multiple Comparisons Test). For the second strain, the respective values were 30.6 (standard error of mean 2.7) and 26 (standard error of mean 2.9) although the difference was not statistically significant. In a second experiment, the effect of pioglitazone on the second strain was studied again, but the exposure time was increased to 10 days and the effects of lower and higher concentrations (1 μM and 10 μM) were studied. After 10 days treatment with vehicle, the percentage of α-SMA cells was 16.5 (standard error of mean 2.7); after 10 days treatment with pioglitazone at 1 μM the percentage was 15.3 (standard error of mean 1.8); and after treatment with pioglitazone at 10 μM the percentage of α-SMA cells was 7.4 (standard error of mean 1.8) (all n=4). The reduction in α-SMA cells by 10 μM pioglitazone was significant (P≦0.05 Dunnett Multiple Comparisons Test).

CCc1ccc(CCOc2ccc(CC3SC(=O)NC3=O)cc2)nc1 (stereo not shown) [pioglitazone]
percentage of α-SMA cells (α-SMA positive cells as a percentage of total cells) (first strain, control 27 (SEM 3.7), statistically significant P≦0.01, sample size 24): 17 (standard error mean 2.5) percentage | percentage of α-SMA cells (second strain, pioglitazone 1 μM): 15.3 (standard error of mean 1.8) percentage | percentage of α-SMA cells (α-SMA positive cells as a percentage of total cells) (second strain, control 30.6 (SEM 2.7), difference not statistically significant): 26 (standard error of mean 2.9) percentage | percentage of α-SMA cells (second strain, pioglitazone 10 μM, significant P≦0.05): 7.4 (standard error of mean 1.8) percentage
